Data set [1] relates to cat. The settings on record: 5 cats, 2% solution.
Data set [2] has as its system cat. As to conditions: 10 mg./kg. i.v. plus four supplementary i.v. injections each of 2.0 mg./kg. From the text: A cat weighing 2.5 kg. is anaesthetised exactly as described in Example 17.
For data set [3], the system named is mice. As to the kind of experiment: Mean sleeping time of mice after twice the HD50, intravenous. The settings on record: for 2,6-diisopropylphenol 27 mg./kg., standard deviation ±0.59 minutes. The format is in vivo, mouse. Here is the method: Each of 10 mice is injected intravenously with 27 mg./kg. bodyweight (twice the HD50) of 2,6-diisopropylphenol as a 1% sterile solution described in Example 14.

Data set [4] in a line: HD50 (anaesthesia, loss of righting reflex) and LD50 in mice, intravenous. The settings on record: mouse, in vivo; for LD50: mice. Here is the method:
(§1) Each mouse is various groups of 10 mice is injected intravenously with a 1% sterile solution of 2,6-diisopropylphenol as described in Example 14, the total dose administered being the same within any group but differing between groups.

The subject of data set [5] is mice. Described as above. As to conditions: Mus musculus, read-out: HD50 (dose required to cause anaesthesia, loss of righting reflex for at least 30 seconds, in 5 out of 10 mice). Here is the method: as §1
Another data set has as its system pigtail monkey. As to conditions: 2% solution. Here is the method: A 2% sterile solution of 2,6-diisopropylphenol prepared as described in Example 14 is administered intravenously to a pigtail monkey weighing 6.8 kg. at a rate of 0.05 mg. of phenol/kg. bodyweight/second until a dose of 34 mg. (5 mg./kg. bodyweight) of the phenol has been injected.
Data set [6] has as its system cat. As to the kind of experiment: Intramuscular anaesthesia in a cat (Example 20). The format is in vivo. The settings on record: 35 mg./kg. intramuscularly. Here is the method: Righting reflexes are lost after 15 minutes, after a further 25 minutes anaesthesia has deepened sufficiently to allow intubation to be carried out. Muscle tone returns after a further 60 minutes and thereafter recovery is uneventful.

The subject of data set [7] is mice, rats, rabbits, cats, rhesus or pigtail monkeys, pigs, sheep, horses, or cattle. As to the kind of experiment: Intravenous anaesthesia in various animal species. The format is in vivo. Here is the method:
Anaesthesia is produced in less than 1 minute and lasts, depending upon the species and the dose, from 3 to 25 minutes. […] The compound may also be administered intramuscularly.

In data set [8] the test system is cat. As to conditions: 10 mg./kg. i.v., topical anaesthetic applied to the larynx. From the text:
A cat is anaesthetised exactly as described in Example 17. […] Anaesthesia is thereafter maintained with an inhalation anaesthetic delivered through an Ayre's T-piece circuit.

The mark [9] stands for this setting: LD50 (dose required to kill 5 out of 10 mice), intravenous, 2,6-diisopropylphenol as 1% sterile solution of Example 14.
The mark [10] stands for this setting: intravenous, single dose of between 2.5 and 10 mg. per kg. bodyweight.

For orientation: LD50 means the dose expected to kill half of the subjects tested. For `CC(C)c1cccc(C(C)C)c1O` [2,6-diisopropylphenol], the Induction of anaesthesia entry in the data set with cat [1] (10 mg./kg. i.v. at 0.05 mg./kg./second) is “rapid and free from excitment”. In the data set with cat [1] (10 mg./kg. i.v.), the Muscle relaxation entry is reported as “muscle relaxation is produced”; the “Quality of further recovery” value is “smooth and rapid”; the Spinal reflexes result is recorded as “spinal reflexes are depressed”; the “Time to return of response to painful stimulation” value is on record as “approximately 10 minutes”. Moreover, the “Mean time from induction to reappearance of righting reflexes” value in the data set on cat [1] (10 mg./kg. i.v., standard deviation ±7.35 minutes) came out at 34 min. Moreover, the “Mean time after induction until cat is able to stand again” value in the data set on cat [1] (10 mg./kg. i.v., ±10.29 minutes) came to 42.6 min. In the data set on cat [2], the “Quality of recovery after the operation” value is given as “rapid” and the “Time after completion of the operation until cat is able to stand” value was 35 min. Besides, in the data set on cat [2] (2% solution), the “Maintenance of anaesthesia during 45 minute laparotomy” value is “anaesthesia is maintained during that time”. The “Mean sleeping time after twice the HD50” value with mice [3] came out at 4.29 min. Besides, the selectivity ratio in data set [4] turned out to be 4.14. In [4] (setting [9]), this compound gave an LD50 of 56 mg/kg. In data set [4] (LD50 dose in mice (general description)), the LD50 came out at 65 mg/kg. For the same compound, the ED50 with mice [5] amounted to 13.5 mg/kg. The Induction of anaesthesia result with pigtail monkey (5 mg./kg. i.v. at 0.05 mg./kg./second) was “smooth and rapid”. Also, in the data set with pigtail monkey (5 mg./kg. i.v.), the Duration of anaesthesia entry was “approximately 6 minutes”, the Muscle relaxation entry was “muscle relaxation is produced”, the Quality of recovery result is recorded as “rapid” and the Spinal reflexes entry is “spinal reflexes are depressed”. Besides, the “Time after induction at which recovery is almost complete” value with pigtail monkey (5 mg./kg. i.v.) is 16 min. In the data set with cat [6] (2% solution), the “Further time (after intubation depth) until muscle tone returns” value is 60 min, the “Further time after loss of righting reflexes until anaesthesia is deep enough for intubation” value was determined as 25 min, the Quality of recovery entry is on record as “uneventful” and the “Time to loss of righting reflexes” value amounted to 15 min. For the same compound, the “Pain or lesion at the site of injection” value in the data set on cat [6] (during the subsequent 7 days) is given as “No pain or lesion at the site of injection is observed”. Moreover, in data set [7] (all animals, intravenous, 2.5 to 10 mg. per kg.), the Quality of recovery entry is “normal and rapid”. Also, in data set [7] (at anaesthetic doses), the Adverse side-effects result is on record as “no adverse side-effects are noted”. Moreover, in [7] (setting [10]), the “Quality of anaesthesia produced” value was “smooth and rapid anaesthesia”; the “Time in which anaesthesia is produced” value is reported as “less than 1 minute”. Also, the Depth of anaesthesia result in the data set with cat [8] is given as “sufficient depth to allow intubation of the trachea”.
Turning to `CCCC(C)C1(CC)C(=O)NC(=S)NC1=O` (centres unmarked) [thiopentone sodium, reference compound], the “Mean sleeping time after twice the HD50” value in the data set with mice [3] came out at 5.97 ± 1.63 min. For the same compound, the selectivity ratio in [4] came out at 4.26. In addition, in data set [4] (setting [9]), the LD50 came to 100 mg/kg. Further, the ED50 with mice [5] is 23.5 mg/kg.
